SMILES strings stand for the structures. ≈ marks a conversion by molar mass, not a printed value.

For one assay, the system named is Escherichia coli. The experiment in a line: Antibacterial activity against Escherichia coli by twofold dilution method. Conditions: Escherichia coli; read-out: MIC. It is filed as functional.
In another assay the test system is Candida. The experiment in a line: Antifungal activity against Candida 51 by twofold dilution method. The format is functional. Conditions: Candida, 51; read-out: MIC.
A further assay deals with Cryptococcus neoformans. The assay can be described thus: Antifungal activity against Cryptococcus neoformans by twofold dilution method. It is filed as functional. Conditions: Cryptococcus neoformans; read-out: MIC.
For another assay, the system named is Candida albicans. The assay can be described thus: Antifungal activity against Candida albicans by twofold dilution method. The format is functional. Conditions: Candida albicans; read-out: MIC.
The subject of another assay is Rhizopus. The assay can be described thus: Antifungal activity against Rhizopus sp. by twofold dilution method. The format is functional. Conditions: Rhizopus; read-out: MIC.
Another assay concerns Aspergillus niger. The experiment in a line: Antifungal activity against Aspergillus niger by twofold dilution method. The format is functional. Conditions: Aspergillus niger; read-out: MIC.
Assay [1] concerns Salmonella enterica subsp. enterica. The experiment in a line: Antibacterial activity against Salmonella typhi by twofold dilution method. It is filed as functional, Salmonella enterica subsp. enterica serovar Typhi. Conditions: Salmonella enterica; read-out: MIC.
In another assay the test system is Aspergillus flavus. The experiment in a line: Antifungal activity against Aspergillus flavus by twofold dilution method. The format is functional. Conditions: Aspergillus flavus; read-out: MIC.
Another assay concerns Pseudomonas aeruginosa. The assay can be described thus: Antibacterial activity against Pseudomonas aeruginosa by twofold dilution method. The format is functional. Conditions: Pseudomonas aeruginosa; read-out: MIC.
The subject of another assay is Staphylococcus aureus. The experiment in a line: Antibacterial activity against Staphylococcus aureus by twofold dilution method. It is filed as functional. Conditions: Staphylococcus aureus; read-out: MIC.

What is called MIC is the least concentration at which growth counts as inhibited. Consider `CC1/C(=N/OCc2ccccc2)CC(c2ccc(Cl)cc2)NC1c1ccc(Cl)cc1` (stereo not given), for which the MIC in the assay with Escherichia coli was 50 µg/mL (≈ 114 µM); with Candida, 50 µg/mL (≈ 114 µM); in the assay with Cryptococcus neoformans it was 50 µg/mL (≈ 114 µM); in the assay with Candida albicans it was 25 µg/mL (≈ 56.9 µM); in the assay on Rhizopus it was 100 µg/mL (≈ 228 µM); with Aspergillus niger, 50 µg/mL (≈ 114 µM). The minimal inhibitory concentration (MIC) in assay [1] is 50 µg/mL (≈ 114 µM); with Aspergillus flavus, 50 µg/mL (≈ 114 µM); in the assay on Pseudomonas aeruginosa, 25 µg/mL (≈ 56.9 µM); with Staphylococcus aureus it was 50 µg/mL (≈ 114 µM).
Consider `COc1ccc(C2C/C(=N\OCc3ccccc3)C(C)C(c3ccc(OC)cc3)N2)cc1` (stereo not given), for which the minimum inhibitory concentration (MIC) with Escherichia coli worked out at 50 µg/mL (≈ 116 µM); in the assay on Candida, 12.5 µg/mL (≈ 29 µM); in the assay on Cryptococcus neoformans, 25 µg/mL (≈ 58.1 µM); with Candida albicans, 25 µg/mL (≈ 58.1 µM); in the assay with Rhizopus, 25 µg/mL (≈ 58.1 µM); in the assay with Aspergillus niger, 50 µg/mL (≈ 116 µM). The MIC in [1] was found to be 25 µg/mL (≈ 58.1 µM); in the assay on Aspergillus flavus, 50 µg/mL (≈ 116 µM); in the assay on Pseudomonas aeruginosa it was 50 µg/mL (≈ 116 µM); in the assay with Staphylococcus aureus it was 25 µg/mL (≈ 58.1 µM).
Regarding `CCC1/C(=N/OCc2ccccc2)CC(c2ccccc2)NC1c1ccccc1` (stereo not given), the MIC in the assay with Escherichia coli was found to be 100 µg/mL (≈ 260 µM); in the assay on Candida, 100 µg/mL (≈ 260 µM); in the assay on Cryptococcus neoformans it was 200 µg/mL (≈ 520 µM); in the assay with Candida albicans, 100 µg/mL (≈ 260 µM); in the assay on Rhizopus, 50 µg/mL (≈ 130 µM); in the assay with Aspergillus niger, 50 µg/mL (≈ 130 µM). Further, the MIC in [1] was 50 µg/mL (≈ 130 µM); in the assay with Aspergillus flavus, over 200 µg/mL; in the assay with Pseudomonas aeruginosa it was 100 µg/mL (≈ 260 µM); in the assay on Staphylococcus aureus, 25 µg/mL (≈ 65 µM).
As for `c1ccc(CON=C2CC(c3ccccc3)NC(c3ccccc3)C2)cc1` (stereo not given), the minimal inhibitory concentration (MIC) in the assay with Escherichia coli was over 200 µg/mL; with Candida, 200 µg/mL (≈ 561 µM); with Cryptococcus neoformans it was over 200 µg/mL; in the assay with Candida albicans it was 200 µg/mL (≈ 561 µM); with Rhizopus it was over 200 µg/mL; in the assay with Aspergillus niger, over 200 µg/mL. Moreover, the MIC in assay [1] was 100 µg/mL (≈ 281 µM); with Aspergillus flavus, 200 µg/mL (≈ 561 µM); in the assay with Pseudomonas aeruginosa it was 200 µg/mL (≈ 561 µM); with Staphylococcus aureus, over 200 µg/mL.
Take `CC1/C(=N/OCc2ccccc2)CC(c2ccccc2)NC1c1ccccc1` (stereo not given): the MIC was 200 µg/mL (≈ 540 µM) in the assay on Escherichia coli; 200 µg/mL (≈ 540 µM) with Candida; over 200 µg/mL with Cryptococcus neoformans; 100 µg/mL (≈ 270 µM) with Candida albicans; 200 µg/mL (≈ 540 µM) in the assay on Rhizopus; 200 µg/mL (≈ 540 µM) in the assay on Aspergillus niger. In addition, the MIC stood at 100 µg/mL (≈ 270 µM) in assay [1], 100 µg/mL (≈ 270 µM) with Aspergillus flavus, 200 µg/mL (≈ 540 µM) in the assay on Pseudomonas aeruginosa and 200 µg/mL (≈ 540 µM) in the assay on Staphylococcus aureus.
Turning to `Clc1ccc(C2CC(=NOCc3ccccc3)CC(c3ccc(Cl)cc3)N2)cc1` (stereo not given), the MIC in the assay with Escherichia coli was 50 µg/mL (≈ 118 µM); in the assay with Candida, 200 µg/mL (≈ 470 µM); with Cryptococcus neoformans, 100 µg/mL (≈ 235 µM); with Candida albicans, 50 µg/mL (≈ 118 µM); in the assay with Rhizopus, over 200 µg/mL; in the assay with Aspergillus niger, 50 µg/mL (≈ 118 µM). The minimum inhibitory concentration (MIC) is 100 µg/mL (≈ 235 µM) in [1], 200 µg/mL (≈ 470 µM) in the assay with Aspergillus flavus, 50 µg/mL (≈ 118 µM) in the assay on Pseudomonas aeruginosa and 50 µg/mL (≈ 118 µM) in the assay on Staphylococcus aureus.
As for `COc1ccc(C2NC(c3ccc(OC)cc3)C(C)C(=NOCc3ccccc3)C2C)cc1` (stereo not given), the MIC with Escherichia coli came to 25 µg/mL (≈ 56.2 µM); in the assay on Candida, 6.25 µg/mL (≈ 14.1 µM); in the assay with Cryptococcus neoformans, 12.5 µg/mL (≈ 28.1 µM); with Candida albicans it was 12.5 µg/mL (≈ 28.1 µM); in the assay with Rhizopus, 25 µg/mL (≈ 56.2 µM); in the assay with Aspergillus niger, 25 µg/mL (≈ 56.2 µM). The minimal inhibitory concentration (MIC) was found to be 25 µg/mL (≈ 56.2 µM) in assay [1], 100 µg/mL (≈ 225 µM) in the assay on Aspergillus flavus, 50 µg/mL (≈ 112 µM) in the assay on Pseudomonas aeruginosa and 25 µg/mL (≈ 56.2 µM) in the assay on Staphylococcus aureus.
Take `CCC1/C(=N\OCc2ccccc2)CC(c2ccccc2)OC1c1ccccc1` (stereo not given): the minimal inhibitory concentration (MIC) came out at 50 µg/mL (≈ 130 µM) in the assay on Escherichia coli; 100 µg/mL (≈ 259 µM) with Candida; 50 µg/mL (≈ 130 µM) in the assay on Cryptococcus neoformans; 100 µg/mL (≈ 259 µM) in the assay on Candida albicans; 100 µg/mL (≈ 259 µM) with Rhizopus; 200 µg/mL (≈ 519 µM) with Aspergillus niger. The MIC in [1] stood at 100 µg/mL (≈ 259 µM); with Aspergillus flavus, 100 µg/mL (≈ 259 µM); in the assay with Pseudomonas aeruginosa, 100 µg/mL (≈ 259 µM); in the assay with Staphylococcus aureus it was 200 µg/mL (≈ 519 µM).
Turning to `Cc1ccc(C2C/C(=N\OCc3ccccc3)C(C)C(c3ccc(C)cc3)N2)cc1` (stereo not given), the MIC worked out at 100 µg/mL (≈ 251 µM) with Escherichia coli; 50 µg/mL (≈ 125 µM) in the assay with Candida; 100 µg/mL (≈ 251 µM) in the assay with Cryptococcus neoformans; 50 µg/mL (≈ 125 µM) in the assay on Candida albicans; 25 µg/mL (≈ 62.7 µM) in the assay on Rhizopus; 100 µg/mL (≈ 251 µM) with Aspergillus niger. Besides, the minimal inhibitory concentration (MIC) in [1] amounted to 100 µg/mL (≈ 251 µM); in the assay with Aspergillus flavus, 100 µg/mL (≈ 251 µM); in the assay with Pseudomonas aeruginosa it was 50 µg/mL (≈ 125 µM); in the assay on Staphylococcus aureus, 50 µg/mL (≈ 125 µM).
`COc1ccc(C2OC(c3ccc(OC)cc3)C(C)C(=NOCc3ccccc3)C2C)cc1` (stereo not given): the MIC with Escherichia coli was 25 µg/mL (≈ 56.1 µM); in the assay on Candida, 12.5 µg/mL (≈ 28.1 µM); in the assay with Cryptococcus neoformans it was 6.25 µg/mL (≈ 14 µM); in the assay with Candida albicans, 50 µg/mL (≈ 112 µM); in the assay on Rhizopus, 25 µg/mL (≈ 56.1 µM); in the assay with Aspergillus niger it was 50 µg/mL (≈ 112 µM). The minimum inhibitory concentration (MIC) in [1] was 50 µg/mL (≈ 112 µM); in the assay with Aspergillus flavus it was 100 µg/mL (≈ 224 µM); with Pseudomonas aeruginosa, 25 µg/mL (≈ 56.1 µM); in the assay on Staphylococcus aureus, 50 µg/mL (≈ 112 µM).

Values taken from ChEMBL document CHEMBL1158420, “Synthesis, spectral, crystal and antimicrobial studies of biologically potent oxime ethers of nitrogen, oxygen and sulfur heterocycles” (2009).
